Assay results: article PMC12947280, “An Antifungal with a Novel Mechanism of Action Discovered via Resistance Gene-Guided Genome Mining” (ACS Central Science, 2026)
In brackets after ≈: the same amount, converted by molar mass. Where two headings read alike, the source gives them in different places.

How the values were obtained:
S. cerevisiae ALS = biological target: T1, S. cerevisiae ALS (Saccharomyces cerevisiae, UniProt P07342); experiment: FAD cofactor reoxidation upon incubation with ALS; format: biochemical; settings: in contrast to accumulative inhibitors 2 and 3
T1 construct: made in house; host or cells: E. coli BL21 (DE3), pET28a-ScILV2

[1] = tested on: Scedosporium prolificans ATCC 11274; experiment: Antifungal screening, broth microdilution MIC; format: cell-based; settings: for MIC: Lomentospora prolificans, ATCC11274, Scedosporium prolificans ATCC 11274
Description: (§1) Antifungal screening of 1
(§2) Antifungal screening was performed by Micromyx, LLC (Kalamazoo, Michigan, USA). Test organisms were either reference strains from the American Type Culture Collection (ATCC; Manassas, VA), the Centers for Disease Control and Prevention (CDC; Atlanta, GA), or clinical isolates from the Micromyx (MMX) collection. Upon receipt at Micromyx, the isolates were streaked under suitable conditions onto agar medium appropriate to each organism. The yeast isolates were incubated for 24 hr at 35 °C and the fungi were incubated for 7 to 13 days at 35 °C, as appropriate. Colonies harvested from these growth plates were resuspended in the appropriate medium containing a cryoprotectant. Aliquots of each suspension were then frozen […]
(§3) Prior to testing, the yeast isolates were streaked from frozen vials onto Sabouraud Dextrose Agar (SAB; Becton Dickenson [BD]/BBL; Sparks, MD, Lot No. 2228660) and were incubated at 35°C for 24 hr. Additional fungal isolates were streaked from frozen vials onto potato dextrose agar (BD/BBL; Sparks, MD, Lot No. 2046481) and incubated under optimal conditions for […]
(§4) All MIC measurements were performed in RPMI1640 from Hyclone Laboratories (Logan, UT;
(§5) Cat. No. SH3001104; Lot No. AC10257966A) buffered with MOPS to pH-7 from Millipore […]
(§6) MIC values were determined using a broth microdilution procedure described by CLSI. 5,6.
(§7) Automated liquid handlers (Multidrop 384, Labsystems, Helsinki, Finland; Biomek 3000 and […]
(§8) Biomek FX, Beckman Coulter Fullerton CA) were used to conduct serial dilutions and liquid […]
(§9) Solutions of 1 were added in an 11 point 2x serial dilution in DMSO with a maximum tested concentration of 32 μg/ml in the culture medium. Drug solution was added at 1% v/v into 200 μl […]
(§10) A standardized inoculum of each test organism was prepared in appropriate media per CLSI methods.5,6 The plates were then inoculated with 10 µL of the diluted inoculum using the Biomek 3000 from low to high drug concentration, resulting in a final concentration of approximately 0.5 to 2.5 x 10^3 CFU/mL for yeast and 0.2 to 2.5 x 10^4 CFU/mL for the other fungi. An un-inoculated plate was incubated for the purpose of assessing solubility of the drug […]
(§11) The plates were stacked 3 to 4 high, covered with a sterile lid on the top plate, and incubated aerobically at 35 °C for 24, 48, and 72 h. For yeast, both the MIC based on complete inhibition and 50% inhibition were reported at 24 and 48 h. For other fungal isolates, the MIC values were recorded at 24 and 48 hr and were based on complete inhibition and 50% inhibition.
(§12) Intact protein LCMS analysis
(§13) 10 μM of recombinant S. cerevisiae ALS was incubated with 10 μM compound 1 in buffer (50 mM Tris pH 7.5, 100 mM KCl, 10 uM FAD, 1 mM TPP, 10 mM MgCl2 (with 2.5% DMSO from compound)) at 22 °C for 30 min. Unreacted 1 was removed by passing the reaction mixture through a 30 kDa MWCO filter (Millipore). The collected protein was then denatured and reduced by incubation with 6 M urea and 10 mM DTT at 37 °C for 1 h followed by 20 mM iodoacetamide alkylation for 30 min in dark. This reaction mixture then underwent buffer exchange into 100 mM Tris-HCl pH 8.0 and 10 mM CaCl2 buffer using a 30 kDa MWCO filter.
(§14) The protein was then incubated with sequencing grade chymotrypsin (Promega) (15:1,w/w) for […]
(§15) After digestion, the peptide mixture was immediately analysed by LC-MS/MS using a Waters I-class UPLC equipped with an ACQUITY UPLC BEH C18 column (2.1x50 mm, 1.7 µm, Waters) at 50 °C coupled to a Waters Synapt G2Si MS. The sample was injected and subjected to an LC gradient starting from 0.5% mobile phase B (ACN with 0.1% formic acid) for 5 min with linear increase to 40% B over 35 min. Mobile phase A was 0.1% formic acid water. Flow rate was maintained at 0.3 ml/min. MS/MS data was acquired in positive ionization mode with data dependent MS/MS acquisition. Peptide mapping was performed with PEAKs Studio 8.0 (Bioinformatics Solutions Inc.) followed by manual review to identify peptides putatively modified by covalent addition of 1. […]

Aspergillus fumigatus = experiment: Antifungal screening, broth microdilution MIC; format: cell-based; settings: for MIC: Aspergillus fumigatus
Description: as §1, §2, §3, §4, §5, §6, §7, §8, §9, §10, §11, §12, §13, §14, §15

[2] = tested on: Mucor circinelloides ATCC 24905; experiment: Antifungal screening, broth microdilution MIC; format: cell-based; settings: for MIC: ATCC24905, Mucor circinelloides ATCC 24905
Description: as §1, §2, §3, §4, §5, §6, §7, §8, §9, §10, §11, §12, §13, §14, §15

[3] = 24 hr, read-out: MIC 100% growth inhibition
[4] = 24 hr, read-out: MIC >50% growth inhibition
[5] = 48 hr, read-out: MIC 100% growth inhibition
[6] = 48 hr, read-out: MIC >50% growth inhibition

T1 sequence (P07342 58-687): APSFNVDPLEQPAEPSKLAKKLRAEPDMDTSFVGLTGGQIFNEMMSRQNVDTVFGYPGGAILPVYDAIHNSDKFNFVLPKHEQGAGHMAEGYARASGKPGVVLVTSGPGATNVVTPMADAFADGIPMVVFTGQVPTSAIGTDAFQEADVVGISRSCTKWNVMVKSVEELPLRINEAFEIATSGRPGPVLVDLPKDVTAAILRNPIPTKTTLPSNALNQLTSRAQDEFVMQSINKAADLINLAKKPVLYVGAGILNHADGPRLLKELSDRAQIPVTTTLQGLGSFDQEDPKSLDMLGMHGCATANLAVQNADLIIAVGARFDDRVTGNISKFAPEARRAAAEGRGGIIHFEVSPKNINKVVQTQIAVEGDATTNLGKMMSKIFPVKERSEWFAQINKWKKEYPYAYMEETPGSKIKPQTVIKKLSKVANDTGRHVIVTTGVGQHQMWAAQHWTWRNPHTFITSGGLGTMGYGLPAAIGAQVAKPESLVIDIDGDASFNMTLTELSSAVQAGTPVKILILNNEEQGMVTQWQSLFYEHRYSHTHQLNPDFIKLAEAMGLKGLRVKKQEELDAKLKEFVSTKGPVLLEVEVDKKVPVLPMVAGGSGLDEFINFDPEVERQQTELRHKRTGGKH

## CCCC1C(C)=CC2CC=CC3(C)C2C1C(=O)C31C(=O)NC(CCCO)C1=O (centres unmarked) [compound 1]
S. cerevisiae ALS
  FAD reoxidation upon treatment: no indication of FAD reoxidation
[1]; [3]
  MIC: 8 µg/mL (≈ 20.8 µM)
[1]; [4]
  MIC: 2 µg/mL (≈ 5.19 µM)
[1]; [5]
  MIC: > 32 µg/mL
[1]; [6]
  MIC: > 32 µg/mL
[1]; Scedosporium prolificans, species summary
  MIC (Table S5): 8
Aspergillus fumigatus; A. fumigatus, species summary
  MIC (Table S5): 2-16
Aspergillus fumigatus; 24 h, read-out: MIC 100% growth inhibition, Aspergillus fumigatus ATCC MYA-3626, 24 hr
  MIC: 4 µg/mL (≈ 10.4 µM)
Aspergillus fumigatus; 24 h, read-out: MIC 100% growth inhibition, Aspergillus fumigatus CDC 0731 (azole resistant), 24 hr
  MIC: 16 µg/mL (≈ 41.5 µM)
Aspergillus fumigatus; 24 h, read-out: MIC 100% growth inhibition, Aspergillus fumigatus CDC 0732 (azole resistant), 24 hr
  MIC: 8 µg/mL (≈ 20.8 µM)
Aspergillus fumigatus; 24 h, read-out: MIC 100% growth inhibition, Aspergillus fumigatus CDC 0733 (azole resistant), 24 hr
  MIC: 8 µg/mL (≈ 20.8 µM)
Aspergillus fumigatus; 24 h, read-out: MIC 100% growth inhibition, Aspergillus fumigatus CDC 0734 (azole resistant), 24 hr
  MIC: 8 µg/mL (≈ 20.8 µM)
Aspergillus fumigatus; 24 h, read-out: MIC 100% growth inhibition, Aspergillus fumigatus CDC 0735 (azole resistant), 24 hr
  MIC: 8 µg/mL (≈ 20.8 µM)
Aspergillus fumigatus; 24 h, read-out: MIC 100% growth inhibition, Aspergillus fumigatus CDC 0736 (azole susceptible), 24 hr
  MIC: 8 µg/mL (≈ 20.8 µM)
Aspergillus fumigatus; 24 h, read-out: MIC 100% growth inhibition, Aspergillus fumigatus CDC 0737 (azole susceptible), 24 hr
  MIC: 16 µg/mL (≈ 41.5 µM)
Aspergillus fumigatus; 24 h, read-out: MIC 100% growth inhibition, Aspergillus fumigatus CDC 0738 (azole susceptible), 24 hr
  MIC: 2 µg/mL (≈ 5.19 µM)
Aspergillus fumigatus; 24 h, read-out: MIC 100% growth inhibition, Aspergillus fumigatus CDC 0739 (azole susceptible), 24 hr
  MIC: 4 µg/mL (≈ 10.4 µM)
Aspergillus fumigatus; 24 h, read-out: MIC 100% growth inhibition, Aspergillus fumigatus CDC 0740 (azole susceptible), 24 hr
  MIC: 4 µg/mL (≈ 10.4 µM)
Aspergillus fumigatus; 24 h, read-out: MIC >50% growth inhibition, Aspergillus fumigatus ATCC MYA-3626, 24 hr
  MIC: 4 µg/mL (≈ 10.4 µM)
Aspergillus fumigatus; 24 h, read-out: MIC >50% growth inhibition, Aspergillus fumigatus CDC 0731 (azole resistant), 24 hr
  MIC: 2 µg/mL (≈ 5.19 µM)
Aspergillus fumigatus; 24 h, read-out: MIC >50% growth inhibition, Aspergillus fumigatus CDC 0732 (azole resistant), 24 hr
  MIC: 2 µg/mL (≈ 5.19 µM)
Aspergillus fumigatus; 24 h, read-out: MIC >50% growth inhibition, Aspergillus fumigatus CDC 0733 (azole resistant), 24 hr
  MIC: 4 µg/mL (≈ 10.4 µM)
Aspergillus fumigatus; 24 h, read-out: MIC >50% growth inhibition, Aspergillus fumigatus CDC 0734 (azole resistant), 24 hr
  MIC: 4 µg/mL (≈ 10.4 µM)
Aspergillus fumigatus; 24 h, read-out: MIC >50% growth inhibition, Aspergillus fumigatus CDC 0735 (azole resistant), 24 hr
  MIC: 4 µg/mL (≈ 10.4 µM)
Aspergillus fumigatus; 24 h, read-out: MIC >50% growth inhibition, Aspergillus fumigatus CDC 0736 (azole susceptible), 24 hr
  MIC: 4 µg/mL (≈ 10.4 µM)
Aspergillus fumigatus; 24 h, read-out: MIC >50% growth inhibition, Aspergillus fumigatus CDC 0737 (azole susceptible), 24 hr
  MIC: 2 µg/mL (≈ 5.19 µM)
Aspergillus fumigatus; 24 h, read-out: MIC >50% growth inhibition, Aspergillus fumigatus CDC 0738 (azole susceptible), 24 hr
  MIC: 1 µg/mL (≈ 2.59 µM)
Aspergillus fumigatus; 24 h, read-out: MIC >50% growth inhibition, Aspergillus fumigatus CDC 0739 (azole susceptible), 24 hr
  MIC: 1 µg/mL (≈ 2.59 µM)
Aspergillus fumigatus; 24 h, read-out: MIC >50% growth inhibition, Aspergillus fumigatus CDC 0740 (azole susceptible), 24 hr
  MIC: 1 µg/mL (≈ 2.59 µM)
Aspergillus fumigatus; 48 h, read-out: MIC 100% growth inhibition, Aspergillus fumigatus ATCC MYA-3626, 48 hr
  MIC: > 32 µg/mL
Aspergillus fumigatus; 48 h, read-out: MIC 100% growth inhibition, Aspergillus fumigatus CDC 0731 (azole resistant), 48 hr
  MIC: > 32 µg/mL
Aspergillus fumigatus; 48 h, read-out: MIC 100% growth inhibition, Aspergillus fumigatus CDC 0732 (azole resistant), 48 hr
  MIC: > 32 µg/mL
Aspergillus fumigatus; 48 h, read-out: MIC 100% growth inhibition, Aspergillus fumigatus CDC 0733 (azole resistant), 48 hr
  MIC: > 32 µg/mL
Aspergillus fumigatus; 48 h, read-out: MIC 100% growth inhibition, Aspergillus fumigatus CDC 0734 (azole resistant), 48 hr
  MIC: > 32 µg/mL
Aspergillus fumigatus; 48 h, read-out: MIC 100% growth inhibition, Aspergillus fumigatus CDC 0735 (azole resistant), 48 hr
  MIC: > 32 µg/mL
Aspergillus fumigatus; 48 h, read-out: MIC 100% growth inhibition, Aspergillus fumigatus CDC 0736 (azole susceptible), 48 hr
  MIC: > 32 µg/mL
Aspergillus fumigatus; 48 h, read-out: MIC 100% growth inhibition, Aspergillus fumigatus CDC 0737 (azole susceptible), 48 hr
  MIC: > 32 µg/mL
Aspergillus fumigatus; 48 h, read-out: MIC 100% growth inhibition, Aspergillus fumigatus CDC 0738 (azole susceptible), 48 hr
  MIC: > 32 µg/mL
Aspergillus fumigatus; 48 h, read-out: MIC 100% growth inhibition, Aspergillus fumigatus CDC 0739 (azole susceptible), 48 hr
  MIC: 32 µg/mL (≈ 83 µM)
Aspergillus fumigatus; 48 h, read-out: MIC 100% growth inhibition, Aspergillus fumigatus CDC 0740 (azole susceptible), 48 hr
  MIC: 32 µg/mL (≈ 83 µM)
Aspergillus fumigatus; 48 h, read-out: MIC >50% growth inhibition, Aspergillus fumigatus ATCC MYA-3626, 48 hr
  MIC: > 32 µg/mL
Aspergillus fumigatus; 48 h, read-out: MIC >50% growth inhibition, Aspergillus fumigatus CDC 0731 (azole resistant), 48 hr
  MIC: > 32 µg/mL
Aspergillus fumigatus; 48 h, read-out: MIC >50% growth inhibition, Aspergillus fumigatus CDC 0732 (azole resistant), 48 hr
  MIC: > 32 µg/mL
Aspergillus fumigatus; 48 h, read-out: MIC >50% growth inhibition, Aspergillus fumigatus CDC 0733 (azole resistant), 48 hr
  MIC: > 32 µg/mL
Aspergillus fumigatus; 48 h, read-out: MIC >50% growth inhibition, Aspergillus fumigatus CDC 0734 (azole resistant), 48 hr
  MIC: > 32 µg/mL
Aspergillus fumigatus; 48 h, read-out: MIC >50% growth inhibition, Aspergillus fumigatus CDC 0735 (azole resistant), 48 hr
  MIC: 32 µg/mL (≈ 83 µM)
Aspergillus fumigatus; 48 h, read-out: MIC >50% growth inhibition, Aspergillus fumigatus CDC 0736 (azole susceptible), 48 hr
  MIC: 16 µg/mL (≈ 41.5 µM)
Aspergillus fumigatus; 48 h, read-out: MIC >50% growth inhibition, Aspergillus fumigatus CDC 0737 (azole susceptible), 48 hr
  MIC: 16 µg/mL (≈ 41.5 µM)
Aspergillus fumigatus; 48 h, read-out: MIC >50% growth inhibition, Aspergillus fumigatus CDC 0738 (azole susceptible), 48 hr
  MIC: 32 µg/mL (≈ 83 µM)
Aspergillus fumigatus; 48 h, read-out: MIC >50% growth inhibition, Aspergillus fumigatus CDC 0739 (azole susceptible), 48 hr
  MIC: 16 µg/mL (≈ 41.5 µM)
Aspergillus fumigatus; 48 h, read-out: MIC >50% growth inhibition, Aspergillus fumigatus CDC 0740 (azole susceptible), 48 hr
  MIC: 16 µg/mL (≈ 41.5 µM)
[2]; [3]
  MIC: 0.5 µg/mL (≈ 1.3 µM)
[2]; [4]
  MIC: 0.12 µg/mL (≈ 0.311 µM)
[2]; [5]
  MIC: 16 µg/mL (≈ 41.5 µM)
[2]; [6]
  MIC: 4 µg/mL (≈ 10.4 µM)
[2]; Mucor circinelloides, species summary
  MIC (Table S5): 0.5
